Test results as given in patent US11040976B2, “Substrate selective inhibitors of insulin-degrading enzyme (IDE) and uses thereof” (President and Fellows of Harvard College, priority 2015, dated 2021).
pIC50: −log10 of the molar value. Read-outs that look alike come from different tables or passages of the source.

Target: T1, recombinant human IDE42-1019 (Homo sapiens, UniProt P14735)
T1 construct: recombinant human IDE42-1019 (R&D Systems); purchased R&D Systems
T1 sequence (P14735 42-1019): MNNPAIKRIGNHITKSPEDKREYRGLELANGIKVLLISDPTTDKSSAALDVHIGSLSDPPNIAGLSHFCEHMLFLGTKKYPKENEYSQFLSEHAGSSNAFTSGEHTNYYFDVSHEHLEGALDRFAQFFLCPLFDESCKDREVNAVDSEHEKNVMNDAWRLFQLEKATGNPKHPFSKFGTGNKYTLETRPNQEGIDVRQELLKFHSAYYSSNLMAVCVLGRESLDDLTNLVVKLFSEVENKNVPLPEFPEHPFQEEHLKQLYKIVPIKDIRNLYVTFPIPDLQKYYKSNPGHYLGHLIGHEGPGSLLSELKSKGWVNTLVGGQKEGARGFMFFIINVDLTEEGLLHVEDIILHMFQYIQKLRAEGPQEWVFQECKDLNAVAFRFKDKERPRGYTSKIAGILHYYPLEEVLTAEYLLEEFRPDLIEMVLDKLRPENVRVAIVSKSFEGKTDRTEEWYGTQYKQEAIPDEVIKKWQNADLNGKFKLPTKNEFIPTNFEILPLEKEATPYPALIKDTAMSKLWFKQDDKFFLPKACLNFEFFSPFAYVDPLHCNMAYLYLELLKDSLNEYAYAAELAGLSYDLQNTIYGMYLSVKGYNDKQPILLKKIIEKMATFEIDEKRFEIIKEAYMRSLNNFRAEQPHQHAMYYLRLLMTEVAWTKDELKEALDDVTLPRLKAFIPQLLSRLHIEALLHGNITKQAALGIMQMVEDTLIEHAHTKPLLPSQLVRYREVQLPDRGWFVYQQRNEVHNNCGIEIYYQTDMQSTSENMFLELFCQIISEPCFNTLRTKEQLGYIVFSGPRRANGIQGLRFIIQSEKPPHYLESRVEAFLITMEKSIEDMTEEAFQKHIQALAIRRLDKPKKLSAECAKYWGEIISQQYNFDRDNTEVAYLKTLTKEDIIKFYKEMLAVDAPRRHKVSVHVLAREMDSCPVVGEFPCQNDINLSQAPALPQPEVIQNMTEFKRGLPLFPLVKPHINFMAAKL
Test: Protease assay with fluorogenic peptide substrate Mca-[…](Dnp)-OH
Type: biochemical
Conditions: for IC50 / Imax (%) Proteolysis (inhibition maximum) / Emax: fluorogenic peptide Mca-RPPGFSAFK(Dnp)-OH; for IC50: apparent IC50 for compounds with submaximal inhibition, read-out: IC50 (μM) Proteolysis; for Imax (%) Proteolysis (inhibition maximum) / Emax: plateau at high inhibitor concentration; for Emax: read-out: Imax (%) Proteolysis (inhibition maximum)
Description: The proteases IDE42-1019, recombinant human IDE42-1019 (R&D Systems), neprilysin (R&D), and angiotensin-converting enzyme (R&D) were assayed using the fluorophore/quencher-tagged peptide substrate Mca-[…](Dnp)-OH (SEQ ID NO: 24) (R&D) according to the manufacturer's instructions and using the recommended buffers (fluorophore Mca=(7-methoxycourmarin-4-yl)acetyl and quencher Dnp=2,4-dinitrophenyl). For IDE the recommended buffer is 50 mM Tris pH 7.5, 1 M NaCl. The enzyme mixtures (48 μL) were transferred to a 96-well plate and combined with 2 μL of inhibitor in DMSO solutions, in 3-fold dilution series. The mixtures were allowed to equilibrate for 10 minutes and the enzymatic reaction was started by addition of substrate peptide in assay buffer (50 μL), mixed, and monitored on a fluorescence plate reader (excitation at 320 nm, emission at 405 nm). Similarly, thimet oligopeptidase (R&D) and neurolysin (R&D) were assayed using substrate Mca-PLGPK(Dnp)-OH (SEQ ID NO: 25) (R&D) according to the manufacturer's instructions and using the recommended buffers. Matrix metalloproteinase-1 (R&D) was activated and assayed according to the manufacturer's instructions with substrate Mca-KPLGL-Dpa-AR-NH2 (SEQ ID NO: 20) (R&D) (quencher DPA=N-3-(2,4,dinitrophenyl)-L-2,3-diaminopropionyl). All assay data points were obtained in duplicate.

Row | Compound | IC50 [µM] | further results
1 | Cc1cccc(-c2ccc(C3CCN(S(=O)(=O)c4ccc5c(c4)OCCO5)CC3)cc2)c1C [A01] | > 30 | –
2 | Cc1cccc(-c2ccc(C3CCN(S(=O)(=O)c4ccc5c(c4)OCO5)CC3)cc2)c1C [A02] | 12 | –
3 | Cc1cccc(-c2ccc(C3CCN(S(=O)(=O)c4cc5ccccc5o4)CC3)cc2)c1C [A03] | > 100 | –
4 | Cc1cccc(-c2ccc(C3CCN(S(=O)(=O)c4ccccc4Oc4ccccc4)CC3)cc2)c1C [A04] | 12 | –
5 | Cc1cccc(-c2ccc(C3CCN(S(=O)(=O)c4cccc(Oc5ccc(F)cc5)c4)CC3)cc2)c1C [A05] | 9 | –
6 | Cc1cccc(-c2ccc(C3CCN(S(=O)(=O)c4cccc(C(=O)N(C)C)c4)CC3)cc2)c1C [A06] | 1 | –
7 | Cc1cccc(-c2ccc(C3CCN(S(=O)(=O)c4ccc(F)c5ncccc45)CC3)cc2)c1C [A07] | 3 | –
8 | Cc1cccc(-c2ccc(C3CCN(S(=O)(=O)c4ccc5c(c4)Cc4ccccc4-5)CC3)cc2)c1C [A08] | 25 | –
9 | Cc1cccc(-c2ccc(C3CCN(S(=O)(=O)c4ccc5c(c4)CCC(=O)N5)CC3)cc2)c1C [A10] | 33 | –
10 | Cc1cccc(-c2ccc(C3CCN(S(=O)(=O)c4cccc5c(N(C)C)cccc45)CC3)cc2)c1C [A11] | 10 | –
11 | Cc1cc2c(cc1S(=O)(=O)N1CCC(c3ccc(-c4cccc(C)c4C)cc3)CC1)OCC(=O)N2 [A13] | 10 | –
12 | Cc1cccc(-c2ccc(C3CCN(S(=O)(=O)c4ccc5c(ccn5C)c4)CC3)cc2)c1C [A14] | 10 | –
13 | Cc1cccc(-c2ccc(C3CCN(S(=O)(=O)c4ccc5[nH]c(=O)[nH]c5c4)CC3)cc2)c1C [A15] | 4 | –
14 | Cc1cccc(-c2ccc(C3CCN(S(=O)(=O)c4cccnc4)CC3)cc2)c1C [A16] | 12 | –
15 | Cc1cccc(-c2ccc(C3CCN(S(=O)(=O)CCc4ccncc4)CC3)cc2)c1C [A17] | 5 | –
16 | Cc1cccc(-c2ccc(C3CCN(S(=O)(=O)c4cc(C(F)(F)F)cc(C(F)(F)F)c4)CC3)cc2)c1C [A18] | 12 | –
17 | Cc1cccc(-c2ccc(C3CCN(S(=O)(=O)N4CC(C)OC(C)C4)CC3)cc2)c1C (centres unmarked) [A19] | 4 | –
18 | COc1ccc(C(=O)N2CCC(c3ccc(-c4cccc(C)c4C)cc3)CC2)c(OC)c1 [A21] | 1 | –
19 | Cc1cccc(-c2ccc(C3CCN(C(=O)c4cccc(OCc5ccccc5)c4)CC3)cc2)c1C [A22] | 1 | –

Row | Compound | IC50 [µM] | further results
20 | Cc1cccc(-c2ccc(C3CCN(C(=O)c4ccccc4Oc4ccccc4)CC3)cc2)c1C [A23] | 10 | –
21 | Cc1cccc(-c2ccc(C3CCN(C(=O)c4ccc5c(c4)OCCN5C)CC3)cc2)c1C [A25] | 0.9 | –
22 | Cc1cccc(-c2ccc(C3CCN(C(=O)c4ccc5occc5c4)CC3)cc2)c1C [A26] | 6 | –
23 | Cc1cccc(-c2ccc(C3CCN(C(=O)C4c5ccccc5-c5ccccc54)CC3)cc2)c1C [A27] | 12 | –
24 | Cc1cccc(-c2ccc(C3CCN(C(=O)c4ccc5ccccc5n4)CC3)cc2)c1C [A28] | 1 | –
25 | Cc1cccc(-c2ccc(C3CCN(C(=O)Oc4cccc5ccccc45)CC3)cc2)c1C [A29] | > 50 | –
26 | Cc1cccc(-c2ccc(C3CCN(C(=O)Oc4ccc5ccccc5c4)CC3)cc2)c1C [A30] | 12 | –
27 | Cc1cccc(-c2ccc(C3CCN(Cc4ccc(Oc5ccccc5)cc4)CC3)cc2)c1C [A31] | 12 | –
28 | Cc1cccc(-c2ccc(C3CCN(Cc4cccc(Oc5ccccc5)c4)CC3)cc2)c1C [A32] | 12 | –
29 | Cc1cccc(-c2ccc(C3CCN(Cc4ccccc4Oc4ccccc4)CC3)cc2)c1C [A33] | 7 | –
30 | Cc1cccc(-c2ccc(C3CCN(Cc4ccc(OCc5ccccc5)cc4)CC3)cc2)c1C [A34] | > 50 | –
31 | Cc1cccc(-c2ccc(C3CCN(Cc4ccc(F)c5ccccc45)CC3)cc2)c1C [A35] | 12 | –
32 | Cc1cccc(-c2ccc(C3CCN(Cc4ccc5ccccc5n4)CC3)cc2)c1C [A39] | 12 | –
33 | Cc1cccc(-c2ccc(C3CCN(C(=O)c4ccc5c(c4)C4(OC5=O)c5ccc(O)cc5Oc5cc(O)ccc54)CC3)cc2)c1C [A40] | 12 | –
34 | Cc1cccc(-c2ccc([C@@H]3[C@@H](CO)N4C/C=C\CN(S(=O)(=O)c5ccccc5C)C[C@@H]34)cc2)c1 [B1] | 0.2 | –
35 | Cc1cccc(-c2ccc([C@@H]3[C@@H](CO)N4CCCCN(S(=O)(=O)c5ccccc5C)C[C@@H]34)cc2)c1 [B2] | 0.4 | Imax (%) Proteolysis (inhibition maximum): 65%
36 | Cc1ccc(-c2ccc([C@@H]3[C@@H](CO)N4CCCCN(S(=O)(=O)c5ccccc5C)C[C@@H]34)cc2)cc1C [B3] | 0.2 | Emax: 72%
37 | Cc1ccccc1S(=O)(=O)N1CCCCN2[C@H](CO)[C@@H](c3ccc(-c4ccc5c(c4)OCO5)cc3)[C@@H]2C1 [B4] | – | Emax: 100%
38 | Cc1ccccc1S(=O)(=O)N1CCCCN2[C@H](CO)[C@@H](c3ccc(-c4cccc(C(F)(F)F)c4)cc3)[C@@H]2C1 [B5] | 7.5 | –

Row | Compound | IC50 [µM] | further results
39 | Cc1ccccc1S(=O)(=O)N1CCCCN2[C@H](CO)[C@@H](c3ccc(-c4ccccc4)cc3)[C@@H]2C1 [B6] | 1 | Emax: 65%
40 | Cc1ccccc1S(=O)(=O)N1CCCCN2[C@H](CO)[C@@H](c3ccc(-c4cccc(O)c4)cc3)[C@@H]2C1 [B7] | 7.5 | Emax: 100%
41 | Cc1ccccc1S(=O)(=O)N1CCCCN2[C@H](CO)[C@@H](c3ccc(-c4cccc(C)c4C)cc3)[C@@H]2C1 [B8] | – | pIC50 (fluorogenic peptide, FIG. 12, read-out: IC50 for proteolysis): 8.70
42 | Cc1cc(C)cc(-c2ccc([C@@H]3[C@@H](CO)N4CCCCN(S(=O)(=O)c5ccccc5C)C[C@@H]34)cc2)c1 [B9] | – | Emax: 72%
43 | Cc1ccccc1S(=O)(=O)N1CCCCN2[C@H](CO)[C@@H](c3ccc(-c4cccc(F)c4)cc3)[C@@H]2C1 [B10] | – | Emax: 65%
44 | Cc1ccccc1-c1ccc([C@@H]2[C@@H](CO)N3CCCCN(S(=O)(=O)c4ccccc4C)C[C@@H]23)cc1 [B11] | – | Emax: 65%
45 | Cc1ccc(C)c(-c2ccc([C@@H]3[C@@H](CO)N4CCCCN(S(=O)(=O)c5ccccc5C)C[C@@H]34)cc2)c1 [B12] | – | Emax: 65%
46 | Cc1ccccc1-c1ccc([C@@H]2[C@@H](CO)N3CCCCN(S(=O)(=O)c4ccccc4C)C[C@@H]23)cc1 [B13] | – | Imax (%) Proteolysis (inhibition maximum): 65%
47 | Cc1ccccc1S(=O)(=O)N1CCCCN2[C@H](CO)[C@@H](c3ccc(-c4cccc(F)c4F)cc3)[C@@H]2C1 [B14] | – | Emax: 90%
48 | Cc1cccc(-c2ccc([C@@H]3[C@@H](CO)N4CCCCN(S(=O)(=O)c5ccccc5C)C[C@@H]34)cc2)c1 [BRD-297] | 0.25 | –
49 | O=C(c1ccncc1)N1CC2NC(C1)C2c1ccc(/C=C/c2ccccc2)cc1 (centres unmarked) [C10] | 10 | Emax: 100%
50 | Cc1cccc(-c2ccc([C@@H]3[C@H](CO)N4CCCCN(S(=O)(=O)c5ccccc5F)C[C@@H]34)cc2)c1 [Compound 807] | – | Emax: 30%
51 | CCC(=O)N1[C@H](CO)[C@H](c2ccc(-c3ccccc3OC)cc2)[C@@H]1CNC(C)=O [D3] | 7 | Emax: 50%
52 | CCC(=O)N1[C@H](CO)[C@H](c2ccc(-c3ccccc3OC)cc2)[C@H]1CNC(C)=O [D4] | > 20 | –
53 | COc1ccccc1-c1ccc([C@H]2[C@@H](CO)N[C@@H]2CNC(=O)C2CCCC2)cc1 [D5] | 7.5 | Emax: 60%
54 | COc1ccccc1-c1ccc([C@@H]2[C@@H](C#N)N(C(=O)CN(C)C)[C@H]2CO)cc1 [D6] | 5 | Emax: 70%
55 | Cc1cccc(-c2ccc([C@H]3C4CNC/C=C\CN4[C@@H]3CO)cc2)c1C (some centres unmarked) [Int211] | > 10 | –
56 | Cc1ccccc1S(=O)(=O)N1CCN(c2ccc(-c3cccc(C)c3C)cc2)CC1 [J1] | 1 | –
57 | Cc1ccccc1S(=O)(=O)N1CCC(O)(c2ccc(-c3cccc(C)c3C)cc2)CC1 [J2] | 2.5 | –
